We go through 37 compounds from patent US9487476B2, “Catechol diethers as potent anti-HIV agents” (priority 2011, dated 2016).

Each structure is given as a SMILES string. Where two headings read alike, the source gives them in different places. A value given as a limit tells only on which side of the number the result lay.

Common to all, as to type: cell-based
For data set [1], the system named is WT HIV-1 (IIIB strain). Briefly: Anti-HIV-1 activity, protection of infected MT-2 cells (MTT).
For data set [2], the system named is MT-2 human T-cells. Briefly: Cytotoxicity, inhibition of MT-2 cell growth.
In data set [3] the test system is HIV-1 variant containing the Y181C (Tyr181Cys) mutation. Briefly: Anti-HIV-1 activity against variant strain in MT-2 cells (MTT). The conditions noted are these: Human immunodeficiency virus 1, MT2, read-out: EC50 Y181C.
The subject of data set [4] is HIV-1 variant containing the K103N/Y181C mutations. The data set can be described thus: Anti-HIV-1 activity against double-mutant strain in MT-2 cells (MTT). The note with it: Human immunodeficiency virus 1, MT2, read-out: EC50 K103N/Y181C.
The mark [5] stands for this setting: Human immunodeficiency virus 1, IIIB, MT2, running text, read-out: EC50 against WT HIV-1.
The mark [6] stands for this setting: Table 4, catechol diether derivatives, MT-2 cells, read-out: Anti-HIV-1 Activity (EC50).

With `Cc1ccc(OCCn2ccc(=O)[nH]c2=O)c(Cc2ccccc2)c1` [Compound 1, 1-(2-(2-benzyl-4-methylphenoxy)ethyl)pyrimidine-2,4(1H,3H)-dione], the EC50 in data set [1] (setting [5]) was 5 µM.

Regarding `O=c1ccn(CCOc2ccc(Cl)cc2Cc2ccccc2)c(=O)[nH]1` [Compound 5, 1-(2-(2-benzyl-4-chlorophenoxy)ethyl)pyrimidine-2,4(1H,3H)-dione], in data set [2] (human), half-maximal cytotoxicity (CC50) was put at 23 µM.

For `O=c1ccn(CCOc2ccc(Cl)cc2Cc2ccccc2Cl)c(=O)[nH]1` [Compound 6, 1-(2-(4-chloro-2-(2-chlorobenzyl)phenoxy)ethyl)pyrimidine-2,4(1H,3H)-dione], in data set [2] (human), it took 28 µM to reach half-maximal cytotoxicity (CC50).

Turning to `O=c1ccn(CCOc2ccc(Cl)cc2Cc2cccc(Cl)c2)c(=O)[nH]1` [Compound 7, 1-(2-(4-chloro-2-(3-chlorobenzyl)phenoxy)ethyl)pyrimidine-2,4(1H,3H)-dione], the CC50 (as a rule, the concentration giving 50% cytotoxicity) in data set [2] (human) came out at 11 µM.

Turning to `O=c1ccn(CCOc2ccc(Cl)cc2Cc2ccc(Cl)cc2Cl)c(=O)[nH]1` [Compound 8, 1-(2-(4-chloro-2-(2,4-dichlorobenzyl)phenoxy)ethyl)pyrimidine-2,4(1H,3H)-dione], the midpoint of cytotoxicity in data set [2] (human), the CC50, lay at 88 µM.

As to `O=c1ccn(CCOc2ccc(Cl)cc2Cc2cc(Cl)cc(Cl)c2)c(=O)[nH]1` [Compound 9, 1-(2-(4-chloro-2-(3,5-dichlorobenzyl)phenoxy)ethyl)pyrimidine-2,4(1H,3H)-dione], the CC50 in data set [2] (human) worked out at 10 µM.

The compound `O=c1ccn(CCOc2ccc(Cl)cc2Cc2cc(Cl)ccc2Cl)c(=O)[nH]1` [Compound 10, 1-(2-(4-chloro-2-(2,5-dichlorobenzyl)phenoxy)ethyl)pyrimidine-2,4(1H,3H)-dione] displayed a CC50 in data set [2] (human) of 15 µM.

In data set [2] (human), `O=c1ccn(CCOc2ccc(Cl)cc2Cc2c(Cl)cccc2Cl)c(=O)[nH]1` [Compound 11, 1-(2-(4-chloro-2-(2,6-dichlorobenzyl)phenoxy)ethyl)pyrimidine-2,4(1H,3H)-dione] showed a CC50 of 49 µM.

In data set [2] (human), `Cc1cn(CCOc2ccc(Cl)cc2Cc2ccccc2)c(=O)[nH]c1=O` [Compound 12, 1-(2-(2-benzyl-4-chlorophenoxy)ethyl)-5-methylpyrimidine-2,4(1H,3H)-dione] came in with a CC50 of 22 µM.

In turn, `O=c1[nH]c(=O)n(CCOc2ccc(Cl)cc2Cc2ccccc2)cc1F` [Compound 13, 1-(2-(2-benzyl-4-chlorophenoxy)ethyl)-5-fluoropyrimidine-2,4(1H,3H)-dione] returned a CC50 in data set [2] (human) of 27 µM.

For the compound `O=c1[nH]c(=O)n(CCOc2ccc(Cl)cc2Cc2ccccc2)cc1Cl` [Compound 14, 1-(2-(2-benzyl-4-chlorophenoxy)ethyl)-5-chloropyrimidine-2,4(1H,3H)-dione], the midpoint of cytotoxicity in data set [2] (human), the CC50, lay at 21 µM.

In turn, `O=c1ccn(CCOc2cc(Cl)ccc2Cc2ccccc2Cl)c(=O)[nH]1` [Compound 15, 1-(2-(5-chloro-2-(2-chlorobenzyl)phenoxy)ethyl)pyrimidine-2,4(1H,3H)-dione] showed a CC50 in data set [2] (human) of 12 µM.

As for `N#Cc1cc(C#N)cc(Oc2cc(Cl)ccc2OCCn2ccc(=O)[nH]c2=O)c1` [Compound 20, 5-(5-chloro-2-(2-(2,4-dioxo-3,4-dihydropyrimidin-1(2H)-yl)ethoxy)phenoxy)isophthalonitrile], the EC50 stood at 21 µM in data set [3] and 2.2 µM in data set [4].

In turn, `N#Cc1cccc(Cl)c1Oc1cc(Cl)ccc1OCCn1ccc(=O)[nH]c1=O` [Compound 21, 3-chloro-2-(5-chloro-2-(2-(2,4-dioxo-3,4-dihydropyrimidin-1(2H)-yl)ethoxy)phenoxy)benzonitrile] displayed a CC50 in data set [2] (human) of 50 µM.

Take `N#Cc1cc(Cl)cc(Oc2cc(Cl)ccc2OCCn2ccc(=O)[nH]c2=O)c1` [Compound 22, 3-chloro-5-(5-chloro-2-(2-(2,4-dioxo-3,4-dihydropyrimidin-1(2H)-yl)ethoxy)phenoxy)benzonitrile]: the figures for the EC50 in data set [3] and in data set [4] were 6.7 µM and 1.2 µM, respectively.

In data set [2] (human), `N#Cc1ccc(Cl)c(Oc2ccc(Cl)cc2OCCn2ccc(=O)[nH]c2=O)c1` [Compound 23, 4-chloro-3-(4-chloro-2-(2-(2,4-dioxo-3,4-dihydropyrimidin-1(2H)-yl)ethoxy)phenoxy)benzonitrile] returned a CC50 of 60 µM.

In data set [2] (human), `N#Cc1cc(C#N)cc(Oc2ccc(Cl)cc2OCCn2ccc(=O)[nH]c2=O)c1` [Compound 24, 5-(4-chloro-2-(2-(2,4-dioxo-3,4-dihydropyrimidin-1(2H)-yl)ethoxy)phenoxy)isophthalonitrile] showed a CC50 greater than 100 µM.

In the case of `N#Cc1cc(Cl)cc(Oc2ccc(Cl)cc2OCCn2cc(F)c(=O)[nH]c2=O)c1` [Compound 26, 3-chloro-5-(4-chloro-2-(2-(5-fluoro-2,4-dioxo-3,4-dihydropyrimidin-1(2H)-yl)ethoxy)phenoxy)benzonitrile], the EC50 came to 0.62 µM in data set [3] and 1.7 µM in data set [4].

Regarding `N#Cc1cc(Cl)cc(Oc2ccc(C#N)cc2OCCn2ccc(=O)[nH]c2=O)c1` [Compound 28, 4-(3-chloro-5-cyanophenoxy)-3-(2-(2,4-dioxo-3,4-dihydropyrimidin-1(2H)-yl)ethoxy)benzonitrile], the CC50 in data set [2] (human) is greater than 100 µM.

For `N#Cc1cc(Cl)cc(Oc2ccc(C#N)cc2OCCn2cc(Cl)c(=O)[nH]c2=O)c1` [Compound 29, 3-(2-(5-chloro-2,4-dioxo-3,4-dihydropyrimidin-1(2H)-yl)ethoxy)-4-(3-chloro-5-cyanophenoxy)benzonitrile], the midpoint of cytotoxicity in data set [2] (human), the CC50, lay at 94 µM.

Consider `N#Cc1ccc(Oc2ccccc2Cl)c(OCCn2ccc(=O)[nH]c2=O)c1` [Compound 30, 4-(2-chlorophenoxy)-3-(2-(2,4-dioxo-3,4-dihydropyrimidin-1(2H)-yl)ethoxy)benzonitrile], for which the EC50 in data set [1] (setting [5]) is 0.27 µM. In data set [2] (human), this compound registered a CC50 greater than 100 µM.

In the case of `N#Cc1ccc(Oc2cc(Cl)ccc2Cl)c(OCCn2ccc(=O)[nH]c2=O)c1` [Compound 31, 4-(2,5-dichlorophenoxy)-3-(2-(2,4-dioxo-3,4-dihydropyrimidin-1(2H)-yl)ethoxy)benzonitrile], the EC50 came to 0.92 µM in data set [3], 2.8 µM in data set [4] and 0.043 µM in data set [1] (setting [5]).

As for `N#Cc1ccc(Oc2cc(Cl)cc(Cl)c2)c(OCCn2ccc(=O)[nH]c2=O)c1` [Compound 32, 4-(3,5-dichlorophenoxy)-3-(2-(2,4-dioxo-3,4-dihydropyrimidin-1(2H)-yl)ethoxy)benzonitrile], the EC50 is 0.8 µM in data set [3], greater than 43 µM in data set [4] and 0.02 µM in data set [1] (setting [5]).

On to `N#Cc1ccc(Oc2cc(Cl)ccc2Cl)c(OCCc2ccncc2)c1` [Compound 33, 4-(2,5-dichlorophenoxy)-3-(2-(pyridin-4-yl)ethoxy)benzonitrile], for which the EC50 in data set [1] (setting [5]) came to 0.76 µM.

As to `N#Cc1ccc(Oc2cc(Cl)ccc2Cl)c(OCc2ccncc2)c1` [Compound 34], the EC50 in data set [1] (setting [5]) stood at 12 µM.

On to `N#Cc1ccc(Oc2cc(Cl)ccc2Cl)c(COCc2ccncc2)c1` [Compound 35, 4-(2,5-dichlorophenoxy)-3-((pyridin-4-ylmethoxy)methyl)benzonitrile], for which the EC50 in data set [1] (setting [5]) came out at 1.8 µM.

`COc1cc(Cl)ccc1Oc1cc(Cl)cc(C#N)c1` [Compound 36, 3-chloro-5-(4-chloro-2-methoxyphenoxy)benzonitrile]: the EC50 in data set [1] (setting [5]) came to 9.9 µM.

Turning to `N#C/C=C/c1cccc(Oc2ccc(C#N)cc2OCCn2ccc(=O)[nH]c2=O)c1` [Compound 40, (E)-4-(3-(2-cyanovinyl)phenoxy)-3-(2-(2,4-dioxo-3,4-dihydropyrimidin-1(2H)-yl)ethoxy)benzonitrile], the EC50 in data set [3] was determined as 0.98 µM; in data set [4], 8 µM; in data set [1] (setting [5]) it was 0.015 µM.

`N#Cc1cc(F)c(Oc2ccccc2Cl)c(OCCn2ccc(=O)[nH]c2=O)c1` [Compound 44, 4-(2-chlorophenoxy)-3-(2-(2,4-dioxo-3,4-dihydropyrimidin-1(2H)-yl)ethoxy)-5-fluorobenzonitrile]: the EC50 in data set [1] (setting [5]) came to 0.16 µM. The CC50 in data set [2] (human) is greater than 100 µM.

Take `O=c1ccn(CCOc2cc(Cl)cc(Cl)c2Oc2ccccc2Cl)c(=O)[nH]1` [Compound 45, 1-(2-(3,5-dichloro-2-(2-chlorophenoxy)phenoxy)ethyl)pyrimidine-2,4(1H,3H)-dione]: the EC50 in data set [1] (setting [5]) amounted to 0.83 µM. The CC50 in data set [2] (human) was 13 µM.

Regarding `COCCOc1cccc(Oc2ccc(C#N)cc2OCCn2ccc(=O)[nH]c2=O)c1` [Compound 46, 3-(2-(2,4-dioxo-3,4-dihydropyrimidin-1(2H)-yl)ethoxy)-4-(3-(2-methoxyethoxy)phenoxy)benzonitrile], in data set [1] (setting [5]), the EC50 was 0.54 µM. In data set [2] (human), this compound came in with a half-maximal cytotoxic concentration (CC50) greater than 100 µM.

Take `N#Cc1ccc(Oc2cccc(OCCCO)c2)c(OCCn2ccc(=O)[nH]c2=O)c1` [Compound 47, 3-(2-(2,4-dioxo-3,4-dihydropyrimidin-1(2H)-yl)ethoxy)-4-(3-(3-hydroxypropoxy)phenoxy)benzonitrile]: the EC50 in data set [1] (setting [5]) turned out to be 1.8 µM. The CC50 in data set [2] (human) was greater than 100 µM.

As for `N#C/C=C/c1cc(F)cc(Oc2ccc(Br)cc2OCCn2ccc(=O)[nH]c2=O)c1` [JLJ511], the EC50 in data set [1] (setting [6]) was determined as 0.0018 µM. Moreover, the CC50 in data set [2] came out at 15 µM.

On to `N#C/C=C/c1cc(Br)cc(Oc2ccc(Cl)cc2OCCn2ccc(=O)[nH]c2=O)c1` [JLJ518], for which, in data set [1] (setting [6]), the EC50 turned out to be 0.0052 µM. The compound also returned a CC50 in data set [2] of 80 µM.

With `N#C/C=C/c1cc(F)cc(Oc2ccc(OCCN3CCOCC3)cc2OCCn2ccc(=O)[nH]c2=O)c1` [JLJ526], the EC50 in data set [1] (setting [6]) worked out at 0.52 µM. Further, the CC50 in data set [2] stood at 27 µM.

For the compound `N#C/C=C/c1cc(Cl)cc(Oc2ccc(OCCN3CCOCC3)cc2OCCn2ccc(=O)[nH]c2=O)c1` [JLJ530], the EC50 in data set [1] (setting [6]) was found to be 1.1 µM. Further, the CC50 in data set [2] amounted to 100 µM.

As to `N#C/C=C/c1cc(Cl)cc(Oc2ccc(Br)cc2OCCn2ccc(=O)[nH]c2=O)c1` [JLJ531], the EC50 in data set [1] (setting [6]) amounted to 0.0091 µM. Moreover, the CC50 in data set [2] was determined as 13 µM.
